Source: ChEMBL document CHEMBL1201862, “PubChem BioAssay data set” (2004)
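Each compound was tested at five concentrations against cells in 96-well plates for 48 hours. GI50 marks 50% less growth.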 Activity calls are given as the source filed them. No stated cut-off is given here; in the data, active = GI50 up to about 1.1 µM and inactive = higher.

Key:
Test in all cases: NCI tumour cell line growth inhibition, 48 h
[1] = test system: CAKI-1
[2] = test system: DMS-273
[3] = test system: HCC 2998
[4] = test system: KM12
[5] = test system: LOX IMVI
[6] = test system: NCI-H23
[7] = test system: NCI-H522
[8] = test system: OVCAR-4
[9] = test system: OVCAR-5
[10] = test system: RXF 393
[11] = test system: SF-268
[12] = test system: SK-MEL-28
[13] = test system: SK-MEL-5
[14] = test system: SN12C
[15] = test system: TK-10
[16] = test system: UACC-257
[17] = test system: UO-31
[18] = test system: NCI-H460

| SMILES | GI50 [1] | GI50 [2] | GI50 [3] | GI50 [4] | GI50 [5] | GI50 [6] | GI50 [7] | GI50 [8] | GI50 [9] | GI50 [10] | GI50 [11] | GI50 [12] | GI50 [13] | GI50 [14] | GI50 [15] | GI50 [16] | GI50 [17] | GI50 [18] |
| --- | --- | --- | --- | --- | --- | --- | --- | --- | --- | --- | --- | --- | --- | --- | --- | --- | --- | --- |
| O=C1C2C3SC(c4cc5ccccc5cc43)C2C(=O)N1c1ccccc1 (stereo not drawn) | 45 µM (inactive) | > 100 µM (inactive) | > 100 µM (inactive) | > 100 µM (inactive) | > 100 µM (inactive) | 98.9 µM (inactive) | 75.7 µM (inactive) | 39.4 µM (inactive) | > 100 µM (inactive) | 28.1 µM (inactive) | > 100 µM (inactive) | 88.5 µM (inactive) | > 100 µM (inactive) | > 100 µM (inactive) | > 100 µM (inactive) | > 100 µM (inactive) | > 100 µM (inactive) |  |
| Cc1cccc(C)c1NC(=O)CCc1n[nH]c(=S)o1 | > 100 µM (inactive) | 44.7 µM (inactive) | > 100 µM (inactive) | > 100 µM (inactive) |  | > 100 µM (inactive) | > 100 µM (inactive) | > 100 µM (inactive) | > 100 µM (inactive) |  | > 100 µM (inactive) | > 100 µM (inactive) | > 100 µM (inactive) | > 100 µM (inactive) | > 100 µM (inactive) | > 100 µM (inactive) | > 100 µM (inactive) | > 100 µM (inactive) |
| COc1cc(C2(C)SCCCS2)c(I)c(OC)c1OC | > 100 µM (inactive) | > 100 µM (inactive) | > 100 µM (inactive) | > 100 µM (inactive) | > 100 µM (inactive) | > 100 µM (inactive) | > 100 µM (inactive) | > 100 µM (inactive) | > 100 µM (inactive) |  | > 100 µM (inactive) | > 100 µM (inactive) | > 100 µM (inactive) | > 100 µM (inactive) | > 100 µM (inactive) | > 100 µM (inactive) | > 100 µM (inactive) | > 100 µM (inactive) |
| CC(=O)OC1C(CCl)OC(N=[N+]=[N-])C(OC(C)=O)C1OC(C)=O (stereo not drawn) | > 100 µM (inactive) | > 100 µM (inactive) | > 100 µM (inactive) | > 100 µM (inactive) |  | > 100 µM (inactive) | > 100 µM (inactive) | > 100 µM (inactive) |  | > 100 µM (inactive) | > 100 µM (inactive) | > 100 µM (inactive) | > 100 µM (inactive) | > 100 µM (inactive) | > 100 µM (inactive) | > 100 µM (inactive) | > 100 µM (inactive) | > 100 µM (inactive) |
| CNC(=O)c1cccc2c(Nc3ccc(NS(C)(=O)=O)cc3OC)c3cccc(C)c3nc12 | 0.0207 µM (active) | 0.0219 µM (active) | 0.568 µM (active) | 0.479 µM (active) | 0.0488 µM (active) | 0.0418 µM (active) | 0.279 µM (active) | 1.9 µM (inactive) | 0.282 µM (active) | 0.533 µM (active) | 0.114 µM (active) | 2.21 µM (inactive) | 0.131 µM (active) | 0.0326 µM (active) | 1.24 µM (inactive) | 1.7 µM (inactive) | 0.425 µM (active) | < 0.01 µM (active) |
| CCOC(=O)C1=C(O)C(=O)c2ccsc2C1=O | > 100 µM (inactive) | > 100 µM (inactive) | > 100 µM (inactive) | > 100 µM (inactive) | > 100 µM (inactive) | > 100 µM (inactive) | 69.3 µM (inactive) | > 100 µM (inactive) | > 100 µM (inactive) | > 100 µM (inactive) | > 100 µM (inactive) | > 100 µM (inactive) | > 100 µM (inactive) | > 100 µM (inactive) | > 100 µM (inactive) | > 100 µM (inactive) | > 100 µM (inactive) | > 100 µM (inactive) |
| Cc1ccc(C2=Nc3ccccc3SC(c3cccc4c3OCO4)C2)cc1 (stereo not drawn) | 16.1 µM (inactive) | 19.7 µM (inactive) | 20.9 µM (inactive) | 15.7 µM (inactive) | 16.6 µM (inactive) | 16.7 µM (inactive) | 13.9 µM (inactive) | 15.5 µM (inactive) | 21.8 µM (inactive) | > 10 µM (inactive) | 21.1 µM (inactive) | 17.6 µM (inactive) | 16.2 µM (inactive) | 19.5 µM (inactive) | 21.2 µM (inactive) | 18 µM (inactive) | 14.1 µM (inactive) | 31.3 µM (inactive) |
| O=C(O)C1(c2ccccc2)CCCNCC1 (stereo not drawn) | > 100 µM (inactive) | > 100 µM (inactive) | > 100 µM (inactive) | > 100 µM (inactive) | > 100 µM (inactive) | > 100 µM (inactive) | > 100 µM (inactive) | > 100 µM (inactive) | > 100 µM (inactive) | > 100 µM (inactive) | > 100 µM (inactive) | > 100 µM (inactive) | > 100 µM (inactive) | > 100 µM (inactive) | > 100 µM (inactive) | > 100 µM (inactive) | > 100 µM (inactive) | > 100 µM (inactive) |
| COC(=O)/C(=N\NC(=S)NN)C(C(=O)C(=O)Nc1ccccc1C(N)=O)c1nc2ccccc2nc1O (stereo not drawn) | > 100 µM (inactive) | > 100 µM (inactive) | > 100 µM (inactive) | > 100 µM (inactive) |  | 7.69 µM (inactive) | > 100 µM (inactive) | > 100 µM (inactive) | > 100 µM (inactive) | > 100 µM (inactive) | > 100 µM (inactive) | > 100 µM (inactive) | > 100 µM (inactive) | > 100 µM (inactive) | > 100 µM (inactive) | > 100 µM (inactive) | > 100 µM (inactive) |  |
| O=C(O)c1nccnc1C(=O)O | > 100 µM (inactive) | > 100 µM (inactive) | > 100 µM (inactive) | > 100 µM (inactive) | > 100 µM (inactive) | > 100 µM (inactive) | > 100 µM (inactive) | > 100 µM (inactive) | > 100 µM (inactive) | > 100 µM (inactive) | > 100 µM (inactive) | > 100 µM (inactive) | > 100 µM (inactive) | > 100 µM (inactive) | > 100 µM (inactive) | > 100 µM (inactive) | > 100 µM (inactive) | > 100 µM (inactive) |
| OCn1nc2c(C3OCCO3)cc3ccccc3n2c1=S | > 100 µM (inactive) | > 100 µM (inactive) |  | > 100 µM (inactive) | > 100 µM (inactive) | > 100 µM (inactive) | > 100 µM (inactive) | > 100 µM (inactive) | > 100 µM (inactive) | > 100 µM (inactive) | > 100 µM (inactive) | > 100 µM (inactive) | > 100 µM (inactive) | > 100 µM (inactive) | > 100 µM (inactive) | > 100 µM (inactive) | > 100 µM (inactive) | > 100 µM (inactive) |
| CC(=O)OC1CC2C(C)(C)C(=O)C=C[C@]2(C)C2CCC3(C)C(c4ccoc4)C(=O)C4OC43[C@]12C (stereo partly drawn) | 28.5 µM (inactive) | 31.6 µM (inactive) | 16.7 µM (inactive) | 15.1 µM (inactive) | 13.2 µM (inactive) | 15.3 µM (inactive) | 12.9 µM (inactive) | 15.1 µM (inactive) | 29.4 µM (inactive) |  | 21.7 µM (inactive) | 16.9 µM (inactive) | 15.7 µM (inactive) | 15.2 µM (inactive) | 36.6 µM (inactive) | 15.7 µM (inactive) | 20.2 µM (inactive) | 17.1 µM (inactive) |
| C=C[C@@]12CCCCC1C/C(=C(/O)OC)C(=O)C2 (stereo partly drawn) | > 100 µM (inactive) | > 100 µM (inactive) | > 100 µM (inactive) | > 100 µM (inactive) | > 100 µM (inactive) | > 100 µM (inactive) | > 100 µM (inactive) | > 100 µM (inactive) | > 100 µM (inactive) | > 100 µM (inactive) | > 100 µM (inactive) | > 100 µM (inactive) | > 100 µM (inactive) | > 100 µM (inactive) | > 100 µM (inactive) | > 100 µM (inactive) | > 100 µM (inactive) | > 100 µM (inactive) |
| COc1cccc(-c2cc(O)c3ccccc3n2)c1 |  | 4.53 µM (inactive) | 6.58 µM (inactive) | 4.03 µM (inactive) | 5.18 µM (inactive) | 7.52 µM (inactive) | 3.06 µM (inactive) | > 100 µM (inactive) | 7.43 µM (inactive) | 2.79 µM (inactive) | 10.3 µM (inactive) | > 100 µM (inactive) | 4.48 µM (inactive) | 6.46 µM (inactive) | > 100 µM (inactive) | 2.32 µM (inactive) | 6.18 µM (inactive) | 4.59 µM (inactive) |
| COc1cccc(/C=C(/C(=O)O)c2cc(OC)c(OC)c(OC)c2)c1 | > 100 µM (inactive) | > 100 µM (inactive) |  | > 100 µM (inactive) | > 100 µM (inactive) |  | > 100 µM (inactive) | > 100 µM (inactive) |  | 45.2 µM (inactive) | > 100 µM (inactive) | > 100 µM (inactive) | > 100 µM (inactive) | > 100 µM (inactive) | > 100 µM (inactive) | > 100 µM (inactive) | > 100 µM (inactive) | > 100 µM (inactive) |
| COc1ccc2[nH]cc(CCNC(C)=O)c2c1 [MELATONIN] | > 100 µM (inactive) | > 100 µM (inactive) |  | > 100 µM (inactive) | 39.8 µM (inactive) | > 100 µM (inactive) | > 100 µM (inactive) | > 100 µM (inactive) | > 100 µM (inactive) | > 100 µM (inactive) | > 100 µM (inactive) | > 100 µM (inactive) | > 100 µM (inactive) | > 100 µM (inactive) | > 100 µM (inactive) | > 100 µM (inactive) | > 100 µM (inactive) | > 100 µM (inactive) |
